# Test results: patent US20250221996A1, “HETEROCYCLIC COMPOUNDS, COMPOSITIONS THEREOF, AND METHODS OF TREATMENT THEREWITH” (BeiGene, Ltd., priority 2022, published 2025)
# Tested on: pERK1/2(THR202/TYR204) level in AsPC-1 cells
# Assay: pERK assay (HTRF) in AsPC-1 cell line
# Assay type: cell-based
# Details: Homo sapiens, ASPC1, 2 h, 2 h compound treatment
# How it was run: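 AsPC-1 (KRAS G12D) cells, 30000/well, seeded overnight, then treated 2 h with a 10-point series at 0 to 10 μM final. Lysate pERK1/2 (Thr202/Tyr204) detected by HTRF after overnight antibody incubation at room temperature; IC50 from percent inhibition versus log concentration.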
row,Compound,IC50 [nM]
1,"COC1(COc2nc(N3CC4CCC(C3)N4)c3cc(C(F)(F)F)c(-c4ccc(F)c5sc(N)c(C#N)c45)c(F)c3n2)CN(C(C)=O)C1 [Example 39, 4-(2-((1-acetyl-3-methoxyazetidin-3-yl)methoxy)-4-(3,8-diazabicyclo [3.2.1]octan-3-yl)-8-fluoro-6-(trifluoromethyl)quinazolin-7-yl)-2-amino-7-fluorobenzo[b]thiophene-3-carbonitrile]",495
2,"CC(=O)N1CC2(COc3nc(N4CC5CCC(C4)N5)c4cc(C(F)(F)F)c(-c5ccc(F)c6sc(N)c(C#N)c56)c(F)c4n3)CC1C2 [Example 40, 4-(2-((2-acetyl-2-azabicyclo[2.1.1]hexan-4-yl)methoxy)-4-(3,8-diazabicyclo[3.2.1]octan-3-yl)-8-fluoro-6-(trifluoromethyl)quinazolin-7-yl)-2-amino-7-fluorobenzo[b]thiophene-3-carbonitrile]",236
3,"COCCNC1C[C@H]2CC[C@@H]1N2c1nc(OCC23COC(C2)C3)nc2c(F)c(-c3ccc(F)c4sc(N)c(C#N)c34)c(C(F)(F)F)cc12 (stereo partly drawn) [Example 41, 4-(2-((2-oxabicyclo[2.1.1]hexan-4-yl)methoxy)-8-fluoro-4-((1S,4R)-2-((2-methoxyethyl)amino)-7-azabicyclo[2.2.1]heptan-7-yl)-6-(trifluoromethyl)quinazolin-7-yl)-2-amino-7-fluorobenzo[b]thiophene-3-carbonitrile]",860
4,"CC12CC(COc3nc(N4CC5CCC(C4)N5)c4ccc(-c5cc(O)cc6ccccc56)c(F)c4n3)(CO1)C2 [Example 42, 4-(4-(3,8-diazabicyclo[3.2.1]octan-3-yl)-8-fluoro-2-((1-methyl-2-oxabicyclo[2.1.1]hexan-4-yl)methoxy)quinazolin-7-yl)naphthalen-2-ol]",4340
5,"N#Cc1c(N)sc2c(F)ccc(-c3c(C(F)(F)F)cc4c(N5CC6CCC(C5)N6)nc(OCC5(C(F)F)CCOCC5)nc4c3F)c12 [Example 43, 4-(4-(3,8-diazabicyclo[3.2.1]octan-3-yl)-2-((4-(difluoromethyl)tetrahydro-2H-pyran-4-yl)methoxy)-8-fluoro-6-(trifluoromethyl)quinazolin-7-yl)-2-amino-7-fluorobenzo[h]thiophene-3-carbonitrile]",479
6,"N#Cc1c(N)sc2c(F)ccc(-c3c(C(F)(F)F)cc4c(N5CC6CCC(C5)N6)nc(OCC5(F)COC5)nc4c3F)c12 [Example 44, 4-(4-(3,8-diazabicyclo[3.2.1]octan-3-yl)-8-fluoro-2-((3-fluorooxetan-3-yl)methoxy)-6-(trifluoromethyl)quinazolin-7-yl)-2-amino-7-fluorobenzo [b]thiophene-3-carbonitrile]",211
7,"COC1(COc2nc(N3CC4CCC(C3)N4)c3cc(C(F)(F)F)c(-c4ccc(F)c5sc(N)c(C#N)c45)c(F)c3n2)CC1 [Example 45, 4-(4-(3,8-diazabicyclo[3.2.1]octan-3-yl)-8-fluoro-2-((1-methoxycyclopropyl)methoxy)-6-(trifluoromethyl)quinazolin-7-yl)-2-amino-7-fluorobenzo[b] thiophene-3-carbonitrile]",115
8,"CC1(COc2nc(N3CC4CCC(C3)N4)c3cc(C(F)(F)F)c(-c4ccc(F)c5sc(N)c(C#N)c45)c(F)c3n2)CN(c2ncco2)C1 [Example 46, 4-(4-(3,8-diazabicyclo[3.2.1]octan-3-yl)-8-fluoro-2-((3-methyl-1-(oxazol-2-yl)azetidin-3-yl)methoxy)-6-(trifluoromethyl)quinazolin-7-yl)-2-amino-7-fluorobenzo[b]thiophene-3-carbonitrile]",222
9,"N#Cc1c(N)sc2c(F)ccc(-c3c(C(F)(F)F)cc4c(N5CC6CCC(C5)N6)nc(OCC56COC(COC7CC7)(C5)C6)nc4c3F)c12 [Example 47, 4-(4-(3,8-diazabicyclo[3.2.1]octan-3-yl)-2-((1-(cyclopropoxymethyl)-2-oxabicyclo[2.1.1]hexan-4-yl)methoxy)-8-fluoro-6-(trifluoromethyl)quinazolin-7-yl)-2-amino-7-fluorobenzo[b]thiophene-3-carbonitrile]",154
10,"N#Cc1c(N)sc2c(F)ccc(-c3c(C(F)(F)F)cc4c(N5CC6CCC(C5)N6)nc(OCC5(C#N)COC5)nc4c3F)c12 [Example 49, 3-(((7-(2-amino-3-cyano-7-fluorobenzo[b]thiophen-4-yl)-4-(3,8-diazabicyclo[3.2.1]octan-3-yl)-8-fluoro-6-(trifluoromethyl)quinazolin-2-yl)oxy)methyl)oxetane-3-carbonitrile]",103
11,"N#Cc1c(N)sc2c(F)ccc(-c3c(C(F)(F)F)cc4c(N5CC6CCC(C5)N6)nc(OCC5(CO)CCOCC5)nc4c3F)c12 [Example 50, 4-(4-(3,8-diazabicyclo[3.2.1]octan-3-yl)-8-fluoro-2-((4-(hydroxymethyl)tetrahydro-2H-pyran-4-yl)methoxy)-6-(trifluoromethyl)quinazolin-7-yl)-2-amino-7-fluorobenzo[b]thiophene-3-carbonitrile]",193
12,"N#CCC1(COc2nc(N3CC4CCC(C3)N4)c3cc(C(F)(F)F)c(-c4ccc(F)c5sc(N)c(C#N)c45)c(F)c3n2)COC1 [Example 51, 4-(4-(3,8-diazabicyclo[3.2.1]octan-3-yl)-2-((3-(cyanomethyl)oxetan-3-yl)methoxy)-8-fluoro-6-(trifluoromethyl)quinazolin-7-yl)-2-amino-7-fluoro benzo[b]thiophene-3-carbonitrile]",142
13,"CCc1cc2c(N3CC4CCC(C3)N4)nc(OCC34COC(C)(C3)C4)nc2c(F)c1-c1ccc(F)c2sc(N)c(C#N)c12 [Example 52, 4-(4-(3,8-diazabicyclo[3.2.1]octan-3-yl)-6-ethyl-8-fluoro-2-((1-methyl-2-oxabicyclo[2.1.1]hexan-4-yl)methoxy)quinazolin-7-yl)-2-amino-7-fluorobenzo[b]thiophene-3-carbonitrile]",235
14,"N#Cc1c(N)sc2c(F)ccc(-c3c(C(F)(F)F)cc4c(N5CC6CCC(C5)N6)nc(OCC5(CF)COC5)nc4c3F)c12 [Example 53, 4-(4-(3,8-diazabicyclo[3.2.1]octan-3-yl)-8-fluoro-2-((3-(fluoromethyl)oxetan-3-yl)methoxy)-6-(trifluoromethyl)quinazolin-7-yl)-2-amino-7-fluoro benzo[b]thiophene-3-carbonitrile]",33
15,"Cn1ccnc1N1CC(C)(COc2nc(N3CC4CCC(C3)N4)c3cc(C(F)(F)F)c(-c4ccc(F)c5sc(N)c(C#N)c45)c(F)c3n2)C1 [Example 54, 4-(4-(3,8-diazabicyclo[3.2.1]octan-3-yl)-8-fluoro-2-((3-methyl-1-(1-methyl-1H-imidazol-2-yl)azetidin-3-yl)methoxy)-6-(trifluoromethyl)quinazolin-7-yl)-2-amino-7-fluorobenzo[b]thiophene-3-carbonitrile]",32
16,"CC1(COc2nc(N3CC4CCC(C3)N4)c3cc(C(F)(F)F)c(-c4ccc(F)c5sc(N)c(C#N)c45)c(F)c3n2)CC2(COC2)C1 [Example 55, 4-(4-(3,8-diazabicyclo[3.2.1]octan-3-yl)-8-fluoro-2-((6-methyl-2-oxaspiro[3.3]heptan-6-yl)methoxy)-6-(trifluoromethyl)quinazolin-7-yl)-2-amino-7-fluorobenzo[b]thiophene-3-carbonitrile]",332
17,"COCC12CC(COc3nc(N4CC5CCC(C4)N5)c4cc(C(F)(F)F)c(-c5ccc(F)c6sc(N)c(C#N)c56)c(F)c4n3)(C1)C(C)(C)O2 [Example 56, 4-(4-(3,8-diazabicyclo[3.2.1]octan-3-yl)-8-fluoro-2-((1-(methoxymethyl)-3,3-dimethyl-2-oxabicyclo[2.1.1]hexan-4-yl)methoxy)-6-(trifluoromethyl)quinazolin-7-yl)-2-amino-7-fluorobenzo[b]thiophene-3-carbonitrile]",109
18,"N#Cc1c(N)sc2c(F)ccc(-c3c(C(F)(F)F)cc4c(N5CC6CCC(C5)N6)nc(OCC5(CO)COC5)nc4c3F)c12 [Example 57, 4-(4-(3,8-diazabicyclo[3.2.1]octan-3-yl)-8-fluoro-2-((3-(hydroxymethyl)oxetan-3-yl)methoxy)-6-(trifluoromethyl)quinazolin-7-yl)-2-amino-7-fluorobenzo[b]thiophene-3-carbonitrile]",294
